Three compounds from paper PMC5669110 (Pharmacognosy Magazine, 2017) can be followed below.

Assay in all cases: fluorogenic HDAC8 inhibitor screening kit
Common to all, as to type: biochemical

In experiment [1] the target is T1, HDAC8 (histone deacetylase family member 8) (Homo sapiens, UniProt Q9BY41).
T1 sequence (Q9BY41 1-377): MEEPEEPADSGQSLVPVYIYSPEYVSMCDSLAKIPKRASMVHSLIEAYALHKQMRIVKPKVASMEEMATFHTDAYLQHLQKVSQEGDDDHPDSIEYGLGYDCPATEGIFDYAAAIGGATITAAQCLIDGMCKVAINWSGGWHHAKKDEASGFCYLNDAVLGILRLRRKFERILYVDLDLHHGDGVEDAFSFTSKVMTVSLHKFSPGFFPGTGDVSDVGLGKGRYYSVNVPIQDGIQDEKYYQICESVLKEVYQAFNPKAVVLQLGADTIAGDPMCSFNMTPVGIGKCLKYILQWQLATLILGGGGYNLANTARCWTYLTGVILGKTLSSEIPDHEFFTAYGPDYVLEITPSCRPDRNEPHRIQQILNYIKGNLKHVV
Conditions: read-out: % inhibition at 60.75 μM.

Experiment [2] addresses T1, HDAC8 (histone deacetylase family member 8). Conditions: read-out: % inhibition at 310.25 μM.
Experiment [3] has the same target. Conditions: read-out: % inhibition at 24.2 μM.

Molecules are shown by their SMILES.

Consider `O=C(O)/C=C/c1ccccc1` [CA, Cinnamic acid], for which the inhibition at 60.75 µM in experiment [1] worked out at 9.3%.

Regarding `O=C/C=C/c1ccccc1` [CAL, Cinnamaldehyde], the inhibition at 310.25 µM in experiment [2] was 18.5%.

For the compound `OCC=Cc1ccccc1` [CALC, Cinnamyl alcohol], the inhibition at 24.2 µM in experiment [3] was 5.7%.

As usually defined, the inhibition is the drop in the measured response relative to a control, in per cent.
